These results are taken from patent publication US20230322756A1, “FUSED IMIDAZOLE DERIVATIVE, PREPARATION METHOD THEREFOR, AND MEDICAL USE THEREOF” (JIANGSU HENGRUI MEDICINE CO., LTD., priority 2020, published 2023).

In one series the target is hERG potassium channel (Homo sapiens (Human), UniProt Q12809). The series is described as follows: Blocking effect on hERG potassium currents, manual patch-clamp in CHO cells stably expressing hERG channel. The class given is cell-based. The following applies: read-out: IC50 for the blocking effect on the hERG potassium ion channel. An excerpt: This example is intended to assess the blocking effect of the compounds of the present disclosure and positive compound 1 (see the compound of Example 7 on page 125 of WO2019239319A1) on hERG potassium currents in a stable cell strain transfected with an hERG potassium channel by a manual patch-clamp assay. The structure of positive compound 1 is shown below:
The cells used in this experiment were from a CHO cell line (provided by Sophion Bioscience, Denmark) transfected with hERG cDNA and stably expressing hERG channel at cell passage number of P5. Cells were cultured in a medium containing the following components (all from Invitrogen): Ham's F12 medium, 10% (v/v) inactivated fetal bovine serum, 100 μg/mL hygromycin B, and 100 μg/mL geneticin.
CHO hERG cells were grown in a culture dish containing the above culture medium and cultured in an incubator at 37° C. with 5% CO2. 24-48 h before the electrophysiological experiment, CHO hERG cells were transferred to round slides placed in the culture dish and grown in the same culture medium and culture conditions as above. The density of CHO hERG cells on each round slide was required to achieve the requirement that most cells were independent and individual.
In this experiment, a manual patch-clamp system (HEKA EPC-10 signal amplifier and digital conversion system, purchased from HEKA Electronics, Germany) was used for whole cell current recording. Round slides with CHO hERG cells grown on the surface were placed in an electrophysiological recording chamber under an inverted microscope. The chamber was continuously perfused with extracellular fluid (approximately 1 mL/min). The experimental procedures were performed by conventional whole-cell patch-clamp current recording technology. Unless otherwise stated, the experiment was performed at room temperature ([…]). The cells were clamped at a voltage of −80 mV. The cell clamp voltage was depolarized to +20 mV to activate the hERG potassium channel, and then clamped to −50 mV 5 s later to eliminate inactivation and generate tail currents. The tail current peak was used as a value for the numeral value of the hERG current. After the hERG potassium currents recorded in the above step were stable under the continuous extracellular fluid perfusion in the recording chamber, the drug to be tested could be added for perfusion until the inhibitory effect of the drug on the hERG current reached a stable state. Generally, the last superposition of 3 consecutive current recording lines is used as a criterion for determining whether a stable state is reached. […]
The experimental data were analyzed by data analysis software supplied by HEKA Patchmaster(V2x73.2), Microsoft Excel, and Graphpad Prism 5.0. […]

The next series addresses CYP1A2 (Homo sapiens (Human), UniProt P05177). Kind of series: Inhibition of human liver microsome CYP450 enzyme, CYP1A2 phenacetin site. The class given is in vitro ADME. The note with it: human liver microsomes, probe substrate phenacetin. The method, then: (§1) I. Materials and Instruments • 1. Phosphate buffered saline (20×PBS, purchased from Sangon); • 2. NADPH (ACROS, A2646-71-1); • 3. Human liver microsome (Corning Gentest, Cat No. 452161, Lot No. 905002, Donor35); • 4. ABI QTrap 4000 LC-MS System (AB Sciex); • 5. ZORBAX Extend-C18, 3×50 mm, 3.5 μm (Agilent, USA); • 6. CYP probe substrate.
(§2) An appropriate amount of human liver microsome stock solution (20 mg/mL) was diluted to obtain a 0.25 mg/mL microsome solution with 7.5 mM MgCl2 solution for later use (prepared right before use).
(§3) b. An appropriate amount of the stock solution was precisely pipetted, and diluted into series solution I at the concentrations of 10 mM, 3 mM, 1 mM, 0.3 mM, 0.03 mM and 0.003 mM with an appropriate amount of DMSO solution. An appropriate amount of the above series solution I was precisely pipetted, and diluted to obtain series solution II at the concentrations of 3 mM, 1 mM, 0.3 mM, 0.1 mM, 0.03 mM, 0.003 mM and 0.0003 mM with an appropriate amount of acetonitrile. An appropriate amount of the above series solution II was precisely pipetted, and diluted with PBS to obtain a working solution at the concentrations of 150 μM, 50 μM, 15 μM, 5 μM, 1.5 μM, 0.15 μM and 0.015 μM for later use.
(§4) 3. Procedures • 1) 40 μL of human liver microsome solution (0.25 mg/mL), 20 μL of probe substrate solution and 20 μL of test compound solution were precisely pipetted into a 96-well plate and pre-incubated for 5 min under a water bath at 37° C. • 2) After 5 min of pre-incubation, the mixture was taken out, 20 μL of 5 mM NADPH solution was added to initiate the reaction, and the resulting mixture was incubated for 30 min under a water bath at 37° C. […]
(§5) The values were calculated by Graphpad Prism to obtain the IC50 values for the inhibition of drugs on CYP1A2 phenacetin, CYP2C19 (S)-mephenytoin and CYP3A4M midazolam sites of metabolism in human liver microsomes, as shown in Table 7.
For orientation: Liver microsomes are a subcellular fraction often used to study metabolism.

A further series has as its target CYP2C19 (Homo sapiens (Human), UniProt P33261). Kind of series: Inhibition of human liver microsome CYP450 enzyme, CYP2C19 (S)-mephenytoin site. Format: in vitro ADME. The following applies: human liver microsomes, probe substrate (S)-mephenytoin. The method, then: as §1, §2, §3, §4, §5
A further series addresses CYP3A4M (Homo sapiens (Human), UniProt P08684). The series is described as follows: Inhibition of human liver microsome CYP450 enzyme, CYP3A4M midazolam site. Format: in vitro ADME. The note with it: human liver microsomes, probe substrate midazolam. The method, then: as §1, §2, §3, §4, §5

Chain of hERG potassium channel (Q12809 whole entry): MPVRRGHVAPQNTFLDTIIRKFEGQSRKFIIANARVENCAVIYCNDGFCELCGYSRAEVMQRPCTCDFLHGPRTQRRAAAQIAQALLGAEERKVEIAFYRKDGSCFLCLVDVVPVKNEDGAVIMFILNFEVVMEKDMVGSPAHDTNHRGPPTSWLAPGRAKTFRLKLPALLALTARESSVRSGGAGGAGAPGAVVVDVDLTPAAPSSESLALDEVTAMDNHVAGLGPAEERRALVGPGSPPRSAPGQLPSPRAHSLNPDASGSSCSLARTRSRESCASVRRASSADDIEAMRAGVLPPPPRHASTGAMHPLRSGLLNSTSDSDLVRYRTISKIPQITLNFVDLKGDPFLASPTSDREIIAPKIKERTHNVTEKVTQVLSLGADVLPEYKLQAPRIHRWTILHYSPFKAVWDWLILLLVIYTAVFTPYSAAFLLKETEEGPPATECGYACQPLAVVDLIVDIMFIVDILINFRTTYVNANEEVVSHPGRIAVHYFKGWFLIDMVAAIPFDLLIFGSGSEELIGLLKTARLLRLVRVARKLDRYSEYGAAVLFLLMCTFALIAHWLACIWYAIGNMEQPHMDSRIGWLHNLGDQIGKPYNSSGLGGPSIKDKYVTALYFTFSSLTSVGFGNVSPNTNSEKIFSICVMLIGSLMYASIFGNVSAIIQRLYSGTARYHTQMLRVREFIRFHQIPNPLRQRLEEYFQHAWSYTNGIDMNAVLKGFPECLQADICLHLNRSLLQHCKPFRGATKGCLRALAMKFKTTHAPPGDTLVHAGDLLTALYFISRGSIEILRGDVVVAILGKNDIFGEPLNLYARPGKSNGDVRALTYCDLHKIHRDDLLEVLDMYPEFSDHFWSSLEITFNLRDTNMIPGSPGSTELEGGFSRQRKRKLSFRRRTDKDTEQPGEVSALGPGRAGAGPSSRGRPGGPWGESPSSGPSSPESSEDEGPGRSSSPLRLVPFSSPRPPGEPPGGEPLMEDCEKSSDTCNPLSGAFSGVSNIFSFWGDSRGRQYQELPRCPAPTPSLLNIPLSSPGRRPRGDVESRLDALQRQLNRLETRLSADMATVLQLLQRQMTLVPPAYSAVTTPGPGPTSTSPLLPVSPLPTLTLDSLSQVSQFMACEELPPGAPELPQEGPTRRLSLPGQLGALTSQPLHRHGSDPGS
Chain of CYP1A2 (P05177 whole entry): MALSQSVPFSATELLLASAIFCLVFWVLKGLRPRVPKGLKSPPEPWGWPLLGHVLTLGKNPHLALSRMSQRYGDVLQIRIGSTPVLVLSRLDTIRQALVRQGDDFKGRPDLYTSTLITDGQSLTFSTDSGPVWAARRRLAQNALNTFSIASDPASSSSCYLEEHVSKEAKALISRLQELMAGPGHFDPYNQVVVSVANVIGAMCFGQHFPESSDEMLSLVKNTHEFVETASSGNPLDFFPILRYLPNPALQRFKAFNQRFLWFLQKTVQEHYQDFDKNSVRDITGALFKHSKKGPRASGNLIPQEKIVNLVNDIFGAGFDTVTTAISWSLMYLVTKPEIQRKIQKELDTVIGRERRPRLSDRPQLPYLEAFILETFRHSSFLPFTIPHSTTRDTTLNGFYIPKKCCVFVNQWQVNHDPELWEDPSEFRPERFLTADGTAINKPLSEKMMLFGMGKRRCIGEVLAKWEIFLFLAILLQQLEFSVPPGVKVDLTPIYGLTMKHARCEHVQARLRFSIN
Chain of CYP2C19 (P33261 whole entry): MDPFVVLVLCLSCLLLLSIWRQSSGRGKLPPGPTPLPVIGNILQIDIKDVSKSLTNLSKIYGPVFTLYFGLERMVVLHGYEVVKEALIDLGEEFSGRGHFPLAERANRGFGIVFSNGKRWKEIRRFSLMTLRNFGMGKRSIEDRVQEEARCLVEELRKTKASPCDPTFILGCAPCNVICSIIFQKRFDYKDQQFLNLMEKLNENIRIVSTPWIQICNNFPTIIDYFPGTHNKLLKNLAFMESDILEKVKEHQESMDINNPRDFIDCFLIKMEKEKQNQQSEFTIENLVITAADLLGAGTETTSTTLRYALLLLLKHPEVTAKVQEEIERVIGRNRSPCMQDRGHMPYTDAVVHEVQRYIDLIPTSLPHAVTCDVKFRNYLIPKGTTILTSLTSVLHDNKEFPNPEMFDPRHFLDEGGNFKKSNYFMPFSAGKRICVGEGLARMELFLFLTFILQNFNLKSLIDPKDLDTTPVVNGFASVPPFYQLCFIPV
Chain of CYP3A4M (P08684 whole entry): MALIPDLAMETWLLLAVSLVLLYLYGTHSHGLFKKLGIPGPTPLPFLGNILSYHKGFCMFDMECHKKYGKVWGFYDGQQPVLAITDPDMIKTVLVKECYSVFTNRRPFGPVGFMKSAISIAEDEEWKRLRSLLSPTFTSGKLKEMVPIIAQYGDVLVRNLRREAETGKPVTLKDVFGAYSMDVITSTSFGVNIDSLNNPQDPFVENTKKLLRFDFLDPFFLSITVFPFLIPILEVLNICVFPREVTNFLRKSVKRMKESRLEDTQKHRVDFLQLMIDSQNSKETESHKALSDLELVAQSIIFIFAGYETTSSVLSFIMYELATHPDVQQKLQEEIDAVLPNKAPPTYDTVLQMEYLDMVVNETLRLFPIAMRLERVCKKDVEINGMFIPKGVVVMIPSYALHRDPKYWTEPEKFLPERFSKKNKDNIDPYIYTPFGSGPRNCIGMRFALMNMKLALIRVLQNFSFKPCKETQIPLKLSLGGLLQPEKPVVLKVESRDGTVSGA

Turning to `O=C(O)c1ccc2nc(CN3CCC(c4cccc5c4O[C@@H](c4ccc(Cl)cc4F)CO5)CC3)n(C[C@@H]3CCO3)c2c1` [Example 4, 2-((4-((S)-3-(4-Chloro-2-fluorophenyl)-2,3-dihydrobenzo[b][1,4]dioxan-5-yl)piperidin-1-yl)methyl)-1-(((S)-oxetan-2-yl)methyl)-1H-benzo[d]imidazole-6-carboxylic acid], the 50% inhibitory concentration (IC50) on hERG potassium channel is 10.1 µM; against CYP1A2, over 30 µM; at CYP2C19 it was over 30 µM; on CYP3A4M it was over 30 µM.
Take `O=C(O)c1ccc2nc(CN3CCC(c4cccc5c4O[C@@H](c4ccc(Cl)cc4F)CO5)CC3)n(C[C@@H]3CCO3)c2n1` [Example 5, 2-((4-((S)-3-(4-Chloro-2-fluorophenyl)-2,3-dihydrobenzo[b][1,4]dioxan-5-yl)piperidin-1-yl)methyl)-3-((S)-oxetan-2-ylmethyl)-3H-imidazo[4,5-b]pyridine-5-carboxylic acid]: the IC50 on hERG potassium channel was 25.9 µM; at CYP1A2, over 30 µM; at CYP2C19 it was over 30 µM; against CYP3A4M, over 30 µM.
As for `C[C@]1(c2ccc(Cl)cc2F)Oc2cccc(C3CCN(Cc4nc5ccc(C(=O)O)cc5n4C[C@@H]4CCO4)CC3)c2O1` [Positive compound 1, reference compound], the IC50 on hERG potassium channel is 4.6 µM; against CYP1A2 it was 12.5 µM; against CYP2C19 it was 7.4 µM; at CYP3A4M, 25.5 µM.

In general, IC50 refers to the concentration that inhibits the measured activity by half.
